# From US20250339391A1, “METHODS FOR EFFECTIVE MANAGEMENT OF PAIN” (South Rampart Pharma, Inc., priority 2024, published 2025)
# “Also recorded” adds a separate entry of the source.
# What was measured:
# [1] = test system: conscious male Sprague-Dawley rats; test: Pulmonary function evaluation in conscious male Sprague-Dawley rats (GLP); format: in vivo, rat; details: 220, 440 and 660 mg/kg oral
# Experimental: The potential effects of orally administered SRP-001 on respiratory rate, tidal volume, and minute volume in conscious male Sprague-Dawley rats was studied in 24 male rats. The rodents were trained for two days in the head-out plethysmograph chamber for 15-17 min each prior to the experiment. On the day of dosing, each animal was weighed and placed in the plethysmograph chamber, and baseline respiratory parameters were obtained for 5 min following an approximately 5-min stabilization period. The rats were then removed from the chamber and dosed by oral gavage. Three groups of six male Sprague-Dawley rats each were orally administered SRP-001 at a single dose of 220, 440, or 660 mg/kg at a dose volume of 10 mL/kg. […] Following dosing, each animal was returned to its designated plethysmograph chamber, and the respiratory parameters were recorded at 30 min (±5 min), 2, 4, and 6 h (±15 min). Animals were allowed to stabilize in the plethysmograph chamber for at least 5 min before each reading was taken. The following parameters were acquired, recorded, and analyzed using Ponemah Physiology Platform (Ponemah v.5.20 Pulmonary); Respiratory rate, Tidal Volume, and Minute Volume, Values for the test article treated group were compared to the vehicle control values using a two-way repeated measures ANOVA followed by a Bonferroni Multiple Comparison Test (SigmaStat, v. 4.0). […]
# [2] = test system: Beagle dogs; test: Single oral dose (capsule) toxicity and pharmacokinetic study in Beagle dogs (non-GLP); format: in vivo
# Experimental: 2) A Single Oral Dose Toxicity and Pharmacokinetic Study of SRP-001 in Beagle Dogs (non-GLP) SRP-001 was prepared into capsules for oral administration. Three experimentally non-naïve Beagle dogs, at least 7 months old and weighing 7.7 to 10 kg prior to treatment initiation, were administered a single dose of 300 mg/kg SRP-001 (Calvert Labs/Altasciences, Scott Township, PA USA). On the day of dosing, animals were observed prior to dose administration, approximately 1-3 h post-dose, and once on day 2. Body weights were recorded for all animals prior to dose administration for the preparation of the capsules. Blood for bioanalytical evaluation was collected at selected timepoints on day 1. Following the completion of the study, surviving animals were not euthanized. They were returned to the Calvert colony for an appropriate washout period before possible use in a subsequent study. […] Plasma samples were collected at seven different time points post-dose.
# [3] = test system: Sprague-Dawley rats; test: 5-day repeat-dose oral toxicity and toxicokinetics in Sprague-Dawley rats (non-GLP); format: in vivo, rat
# Experimental: 4) A Dose-Range-Finding Oral Toxicity Study with SRP-001 in Sprague-Dawley Rats (Non-GLP) As part of a two-phase study, repeat-dose toxicity and toxicokinetics of SRP-001, when administered via oral gavage once daily to Sprague-Dawley rats for 5 d, was done (Calvert Labs/Altasciences, Scott Township, PA USA). The doses selected for Phase II were based on the results of Phase I. SRP-001 was administered to 20 naïve rats (5/group in Groups 5-8) once daily for 5 days via oral gavage for toxicology evaluation and once to 18 naïve rats (6/group in Groups 9-11) for toxicokinetic evaluation.
# Mortality/morbidity was performed twice daily and once prior to sacrifice. Clinical observations were evaluated prior to each dose administration and approximately 1-3 h post-dose for animals in Groups 5-8. Body weights were recorded prior to randomization/selection, prior to dose administration on day 1 for animals in Groups 5-11, and prior to dose administration on day 5 for Groups 5-8. Food consumption was recorded for animals from Groups 5-8 on day 5. Blood for evaluation of hematology, coagulation and clinical chemistry and urine for urinalysis was collected from animals in Groups 5-8 on day 6. All animals in Groups 5-8 were sacrificed on […]. Selected tissues were harvested at necropsy, selected organs weighed, and selected tissues preserved. Blood for toxicokinetic evaluation was collected from animals in Groups 9-11 at selected timepoints on day 1 to ensure comprehensive data capture. These timepoints include 0 hour (pre-dose) and post-dose intervals of 1, 2, 4, 8, and 24 hours on both Day 1 and […] of the study. This schedule allows for a robust assessment of SRP-001's pharmacokinetic profile, including absorption, distribution, metabolism, and excretion and is in line with current FDA-guidelines for GLP studies.
# [4] = test system: Sprague-Dawley rats; test: 28-day oral toxicity study in Sprague-Dawley rats with 14-day recovery (GLP); format: in vivo
# Excerpt: 5) A 28-day Oral Toxicity Study of SRP-001 in Sprague-Dawley Rats with 14-day Recovery (GLP study) We next set out to determine the toxicity and toxicokinetics of SRP-001 when administered via oral gavage once daily to Sprague-Dawley Rats for 28 d (Calvert Labs/Altasciences, Scott Township, PA USA). The study also assessed the reversibility of any toxicity observed with a 14-d recovery period. One hundred thirty-six experimentally naïve Sprague-Dawley rats (68 males and 68 females), 8 weeks old and weighing 167-295 g for males and females at the outset of the study, were assigned to toxicology treatment groups (Groups 1-4) or toxicokinetic groups (Groups 5-7). For toxicology groups, 10 animals/sex/dose were administered 0, 300, 900, or 1500 mg/kg/d SRP-001. An additional 5 animals/sex/dose in Groups 1 and 4 were targeted for a 14-d recovery period and euthanized on day 43. For toxicokinetic groups, 6 animals/sex/dose were administered 300, 900, or 1500 mg/kg/d SRP-001. Mortality/morbidity was performed twice daily and once prior to scheduled sacrifice. Animals in Groups 1-4 were observed prior to each dose administration and 1-3 h post-dose. Animals in Groups 1-4 were also observed once daily on non-dosing days and once prior to scheduled sacrifice. Body weights were recorded prior to randomization/selection, prior to dose administration on day 1, and weekly thereafter. Food consumption was determined weekly for animals in Groups 1-4. Ophthalmology examinations were performed before treatment initiation and during the last week of dosing for animals in Groups 1-4. The functional observational battery was assessed for 5 animals/sex/group in Groups 1-4 once prior to dosing and at 1-2 h following dose administration on day 1. Blood for evaluation of hematology, coagulation, and clinical chemistry and urine for urinalysis was collected from animals in Groups 1-4 on day 29 or day 43. Blood for toxicokinetic evaluation was collected from animals in Groups 5-7 at selected timepoints on days 1 and 28. All surviving animals in Groups 1-4 were sacrificed on day 29 or day 43. Selected tissues were harvested at necropsy, selected organs weighed, and selected tissues evaluated microscopically.
smiles,measurement,setting,value
"CCN(CC)C(=O)c1ccccc1S(=O)(=O)NCC(=O)Nc1ccc(O)cc1 [SRP-001, N,N-diethyl-2-[[2-(4-hydroxyanilino)-2-oxo-ethyl]sulfamoyl]benzamide]","effects on respiratory rate, tidal volume, minute volume",[1],no effects on pulmonary function or cardio-telemetry; also recorded: did not induce any significant effects
same,tolerability,"[2]; dog, in vivo, 300 mg/kg",well tolerated
same,bioavailability,"[2]; single 300 mg/kg, capsules",poor bioavailability
same,liver weights and cholesterol,[3]; 5 days oral gavage,increases in absolute and relative liver weights and increased cholesterol levels
same,tolerated dose,"[3]; Sprague-Dawley, rat, in vivo, 5 d",1200 mg/kg
same,AUC and Cmax levels,[3]; day 1 toxicokinetics,increased in a dose-dependent manner
same,half-life,[3]; high dose,6.86 h
same,Tmax,[3]; low dose,3 h
same,Tmax,[3]; mid and high doses,4.5 h
same,half-life,[3]; mid dose,6.19 h
same,doses with minimal to mild centrilobular hepatocellular hypertrophy,"[4]; both, Sprague-Dawley, rat, in vivo, 28 d",≥ 300 mg/kg/day
same,doses without treatment-related adverse effects,"[4]; both, Sprague-Dawley, rat, in vivo, po, 28 d",up to 1500 mg/kg/day
same,no-adverse effect level (NOAEL),[4]; once daily for 28 d,1500 mg/kg
same,hematology and serum chemistry changes,"[4]; rat, in vivo","increases in globulin, albumin, and total protein and decreases in aspartate aminotransferase, alkaline phosphatase, and mean corpuscular hemoglobin concentration"
